# What was measured:
# [1] = test system: MDA-MB231 breast cancer xenografts; assay: Dynamic PET imaging of radiotracer uptake in MDA-MB231 tumor-bearing mice; type: in vivo, NIH-III nude mice; settings: for SUV mean, Harderian glands / SUV mean, brain / SUV mean, heart / SUV mean, joint / SUV mean, kidneys / SUV mean, liver / SUV mean, muscle / SUV mean, spine / SUV mean, tumor: 60 min
# Protocol: (§1) Normal BALB/c mice or breast cancer xenografts were used for the PET imaging experiments. Human MDA-MB231 cells (3-5×10^6 cells in 100 μL PBS) were injected subcutaneously into 8-12 weeks old anesthetized female NIH-III nude mice (Charles River, Saint-Constant, QC, Canada). Tumors were grown for 3-4 weeks, reaching sizes of 300-500 mm^3. For fasting experiments, the food was removed from the mice for 24 h prior to the PET experiment.
# (§2) Mice were anesthetized with isoflurane (40% O2/60% N2) and their body temperature was kept constant at 37° C. They were positioned and immobilized in prone position into the centre of the field of view of an INVEON® PET scanner (Siemens Preclinical Solutions, Knoxville, TN, USA). A transmission scan for attenuation correction was not acquired. Radioactivity present in the injection solution (0.5 mL insulin syringe) was determined using a dose calibrator (Atomlab™ 300, Biodex Medical Systems, New York, NY, USA). After the emission scan was started, radioactivity (4-8 MBq in 100-150 μL saline) was injected with a delay of ˜15 s through a tail vein catheter. Dynamic PET data acquisition was performed in 3D list mode for 60 min. Dynamic list mode data were sorted into sinograms with 54 time frames (10×2 s, 8×5 s, 6×10 s, 6×20 s, 8×60 s, 10×120 s, 5×300 s). Frames were reconstructed using the maximum a posteriori (MAP) reconstruction mode. No correction for partial volume effects was performed. Image files were further processed using the ROVER v2.0.51 software (ABX GmbH, Radeberg, Germany). Masks defining 3D ROI were set and defined by 50% thresholding. Mean standardized uptake values [SUV=(activity/mL tissue)/(injected activity/body weight) were calculated for each ROI. Time-activity curves (TAC) were generated from the dynamic scans using GraphPad® Prism 5.04 (GraphPad Software, La Jolla, CA, USA).
# (§3) All semi-quantified PET data are expressed as means±SEM. Where applicable, statistical differences were tested by unpaired Student's t test and were considered significant for p<0.05 (*), p<0.01 (**) and p<0.001 (***).
# [2] = test system: subcutaneous MCF-7 breast cancer tumor; assay: Dynamic PET imaging of radiotracer uptake in MCF-7 tumor-bearing mice; type: in vivo
# Protocol: as §2, §3
# normal BALB/c mice = assay: Dynamic PET scans of normal BALB/c mice; type: in vivo; settings: dynamic PET over 30 minutes; for clearance pathway: FIG. 4A; for heart and brain uptake and retention: FIG. 4A-C
# Protocol: as §1
# as §2, with “Dynamic PET data acquisition was performed in 3D list mode for 60 min.” left out
# as §3
Compound,"SUV mean, Harderian glands ([1]; n=3, 24 h fasted)","SUV mean, brain ([1]; n=3, 24 h fasted)","SUV mean, heart ([1]; n=3, 24 h fasted)","SUV mean, joint ([1]; n=3, 24 h fasted)","SUV mean, kidneys ([1]; n=3, 24 h fasted)","SUV mean, liver ([1]; n=3, 24 h fasted)","SUV mean, muscle ([1]; n=3, 24 h fasted)","SUV mean, spine ([1]; n=3, 24 h fasted)","SUV mean, tumor ([1]; n=3, 24 h fasted)","SUV mean, Harderian glands ([1]; n=3, fed (unfasted))","SUV mean, brain ([1]; n=3, fed (unfasted))","SUV mean, heart ([1]; n=3, fed (unfasted))","SUV mean, joint ([1]; n=3, fed (unfasted))","SUV mean, kidneys ([1]; n=3, fed (unfasted))","SUV mean, liver ([1]; n=3, fed (unfasted))","SUV mean, muscle ([1]; n=3, fed (unfasted))","SUV mean, spine ([1]; n=3, fed (unfasted))","SUV mean, tumor ([1]; n=3, fed (unfasted))",clearance pathway (normal BALB/c mice),heart and brain uptake and retention (normal BALB/c mice),other results
"O=C(O)C[C@@H](O)C[18F] [(R)[^18F]FBHB, (R)-[^18F]γ-fluoro-β-hydroxybutyric acid]",1.39 ± 0.11 ^n.s.,1.02 ± 0.05 ^n.s.,0.95 ± 0.03 ^n.s.,1.58 ± 0.02 ^p=0.0501,2.36 ± 0.25 ^n.s.,0.74 ± 0.02 ^n.s.,0.54 ± 0.02,1.56 ± 0.03 *,0.89 ± 0.05 *,1.56 ± 0.13,0.91 ± 0.07,0.84 ± 0.09,1.30 ± 0.10,1.96 ± 0.17,0.66 ± 0.08,0.50 ± 0.05,1.39 ± 0.03,0.77 ± 0.06,renal clearance pathway,moderate heart and brain uptake and retention,"MDA-MB-231 tumor and muscle uptake, 24 hour fast versus fed state (time activity curves) ([1]; FIGS. 9B-C): statistically significant increase in uptake; tumor retention in mice fed a glucose-free, fructose-based diet (SUV ratio versus time) ([1]; MDA-MB231 tumors, FIG. 7): higher; retention in tumor tissue compared to muscle tissue ([1]; subcutaneous MDA-MB231 tumor, FIG. 3A, 3C): higher retention in tumor tissue as compared to muscle tissue; brain uptake after 24 hour fast versus fed (SUV ratio versus time) ([2]; MCF7 tumor-bearing mice, FIG. 6A): increased; heart uptake after 24 hour fast versus fed (SUV ratio versus time) ([2]; MCF7 tumor-bearing mice, FIG. 6B): increased; tumor retention after 24 hour fast versus fed (SUV ratio versus time) ([2]; MCF7 tumor-bearing mice, FIG. 6C): better tumor retention; retention in tumor tissue compared to muscle tissue ([2]; subcutaneous MCF-7 tumor, FIG. 3A-B): higher retention in tumor tissue as compared to muscle tissue"
"O=C(O)C[C@H](O)C[18F] [(S)[^18F]FBHB, (S)-[^18F]γ-fluoro-β-hydroxybutyric acid]",1.15 ± 0.02,1.17 ± 0.02 *,1.05 ± 0.02 *,1.07 ± 0.08,1.38 ± 0.16,0.80 ± 0.02 *,0.60 ± 0.03,1.13 ± 0.04,0.95 ± 0.04,1.10 ± 0.01,1.08 ± 0.02,0.96 ± 0.01,1.10 ± 0.08,1.44 ± 0.05,0.74 ± 0.01,0.57 ± 0.01,1.10 ± 0.07,0.91 ± 0.02,renal clearance pathway,moderate heart and brain uptake and retention,"visibility of xenograft tumors by PET imaging ([1]; intravenous administration, preliminary studies, FIGS. 8A-B and 9A-C): xenograft tumors were visible by PET imaging; tumor uptake compared with muscle uptake, comparison of isomers ([1]; subcutaneous MDA-MB-231 xenograft, FIG. 8B): higher uptake; brain retention, comparison of isomers (normal BALB/c mice; FIG. 4A lower panel): brain retention highest for the S isomer"

# Source: patent US11833228B2, “Fluorinated beta-hydroxybutyric acids for PET imaging” (The Governors of the University of Alberta, priority 2019, dated 2023)
